Measured values from article PMC8214093, “Structural basis of KdpD histidine kinase binding to the second messenger c-di-AMP” (The Journal of Biological Chemistry, 2021).

Target: USPSa-WT (Staphylococcus aureus, UniProt A0A7U7EVR3)
Assay: biochemical
Type: binding
Conditions: for Kd: Dissociation Constant (KD) ± Standard Deviation; for Kd / Dissociation Constant (KD) ± Standard Deviation: His6-USPSa WT, MST, changes in initial fluorescence; for Dissociation Constant (KD) ± Standard Deviation: columns without unit
Experimental: For labeling, the proteins were diluted to a concentration of 800 nM in binding buffer (50 mM potassium phosphate, pH 8.0, 800 mM NaCl, and 0.05% Tween 20), mixed with an equal volume of RED-Tris-NTA dye (80 nM), and incubated on ice in the dark for 30 min. […] The labeled proteins and the ligand dilutions were then mixed in a 1:1 ratio and incubated on ice in the dark for 30 min.
The samples were then loaded into Monolith standard-treated capillaries in triplicate, and the changes in fluorescence were measured with 40% LED power and 20% IR-laser power for an on-time of 20-s at 23 °C. To determine the binding affinity, the ligand-dependent changes in the intensity of the initial fluorescence, or the thermophoretic mobility, were analyzed according to the law of mass action in a standard fitting mode of MO.Affinity analysis software (version 2.3). To exclude the possibility of nonspecific binding of the ligand to the His6-tag (on USPSa) or ligand-induced USP adsorption to labware or due to aggregation, we performed His6-peptide and EDTA tests, respectively ([91]). […] In the EDTA test, the binding buffer additionally contained 50 mM EDTA to disrupt the interaction between His6-USP and the RED-Tris-NTA dye.

Sequence of USPSa-WT (A0A7U7EVR3 entry or part of it): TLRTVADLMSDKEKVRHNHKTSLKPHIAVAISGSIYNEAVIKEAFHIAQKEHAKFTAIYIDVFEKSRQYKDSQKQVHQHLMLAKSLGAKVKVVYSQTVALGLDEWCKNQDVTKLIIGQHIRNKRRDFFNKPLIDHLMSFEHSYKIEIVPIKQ

`Nc1ncnc2c1ncn2[C@@H]1O[C@H](COP(=O)(O)OP(=O)(O)OP(=O)(O)O)[C@@H](O)[C@H]1O` [ATP, adenosine triphosphate] was tested, and the “binding affinity, fold lower than that of c-di-AMP” value was > 5000 fold and the Kd was 5.15 ± 0.07 mM.

`Nc1ncnc2c1ncn2[C@@H]1O[C@@H]2COP(=O)(O)O[C@H]2[C@H]1O` [c-AMP, cyclic AMP] showed a Kd of 10 ± 0.71 mM.

In the case of `Nc1nc2c(ncn2[C@@H]2O[C@@H]3COP(=O)(O)O[C@H]4[C@@H](O)[C@H](n5cnc6c(=O)[nH]c(N)nc65)O[C@@H]4COP(=O)(O)O[C@H]3[C@H]2O)c(=O)[nH]1` [c-di-GMP], the “Dissociation Constant (KD) ± Standard Deviation” value is reported as “No Binding Observed”.

In the case of `Nc1ncnc2c1ncn2[C@@H]1O[C@@H]2COP(=O)(O)O[C@H]3[C@@H](O)[C@H](n4cnc5c(N)ncnc54)O[C@@H]3COP(=O)(O)O[C@H]3[C@@H](O)[C@H](n4cnc5c(N)ncnc54)O[C@@H]3COP(=O)(O)O[C@H]2[C@H]1O` [c-tri-AMP], the “Dissociation Constant (KD) ± Standard Deviation” value is reported as “No Binding Observed”.
